Results from US9807999B2, “Formulations” (priority 2010, dated 2017).

What was measured:
[1] = Solubility of active ingredients in solvents of the invention (equilibrated 4 weeks, supernatant analysed by gas chromatography)
Description: The resultant sample was mixed with a Whirlimixer™ and was then stored at 25° C. […] This procedure was repeated until the sample had equilibrated for 4 weeks following the final addition of either active ingredient or solvent.

[2] = Solubility of pesticides in propylene glycol benzoate compared with commonly used solvents; settings: comparison in words; 20° C.
[3] = solvent propylene glycol benzoate (compound 1), 25° C., equilibrated 4 weeks
[4] = solvent butylene glycol benzoate (compound 2), 25° C., equilibrated 4 weeks

| SMILES | Solubility in propylene glycol benzoate at 25° C. [1, 3] [% w/w] | Solubility in propylene glycol benzoate relative to a series of commonly used solvents [2] | Solubility in butylene glycol benzoate at 25° C. [1, 4] [% w/w] | Solubility in butylene glycol benzoate at 25° C. ([1]; 4 weeks) [% w/w] | Solubility in propylene glycol benzoate at 25° C. ([1]; 4 weeks) [% w/w] |
| --- | --- | --- | --- | --- | --- |
| COCCOCc1nc(C(F)(F)F)ccc1C(=O)C1=C(O)C2CCC(C2)C1=O (centres unmarked) [4-Hydroxy-3-[2-(2-methoxyethoxymethyl)-6-trifluoromethylpyridine-3-carbonyl]-bicyclo[3.2.1]oct-3-en-2-one] | 27.4 |  |  |  |  |
| N#Cc1c(Cl)c(Cl)c(Cl)c(C#N)c1Cl [Chlorothalonil] | 1.32 | lower |  |  |  |
| CO/C=C(/C(=O)OC)c1ccccc1Oc1cc(Oc2ccccc2C#N)ncn1 [Azoxystrobin] | 5.5 | higher | 8.1 |  |  |
| CC(C)C1C2CCC1c1c(NC(=O)c3cn(C)nc3C(F)F)cccc12 (centres unmarked) [Isopyrazam] | 12.7 | higher | 12.4 |  |  |
| CC(C1CC1)C(O)(Cn1cncn1)c1ccc(Cl)cc1 (centres unmarked) [Cyproconazole] |  |  |  | 6.9 | 4.5 |
